Reference: patent publication US20120077761A1, “COMPOSITIONS AND METHODS FOR THE PREVENTION AND TREATMENT OF CORONARY HEART DISEASES” (Generex Pharmaceuticals, Inc, priority 2009, published 2012)

Columns and labels:
[1] = tested on: human umbilical vein endothelial cells (HUVEC); test: differentiation of human umbilical vein endothelial cells (HUVEC); format: cell-based; settings: for differentiation of HUVEC, dose dependence: versus vehicle treated cells (proliferation, no differentiation)
Text: FIG. 2. illustrates a series of micrographs showing differentiation of vessel endothelial cells (HUVEC) induced by angioenhancin compounds of formula I and II. Panels a & b represent the vehicle treated cells showing proliferation but no sign of differentiation.

[2] = tested on: VEGF, VEGFR, EGF and FGF; test: RT-PCR of angiogenesis-associated genes in treated heart tissues and endothelial cells; format: in vivo
[3] = tested on: ischemic hearts; test: echocardiography assessment of heart function in cCHD rats; format: in vivo, SD rats; settings: 5 mg/kg, echocardiography day 2, 7 and 14, progressively lowered in vehicle treated rats
Description: (§1) The subclinical cCHD rat model was produced as described. Briefly, male Sprague-Dawley (SD) rats, weighing 150-200 g, were used. Following proper anesthesia, left thoracotomy was performed on the animals. The pericardium was opened and a probe or surgical suture thread (11-0) was placed onto the epicardium along the LAD. […] The experimental rats with ST segment constantly depressed above 0.1 mV were selected and randomly divided into two groups. […] The rats in vehicle-treated group (n=6) were treated with equivalent period and amount of H2O. For the sham operation group (n=6), left thoracotomy was performed and the pericardium was opened but with no LAD ligation.
Echocardiography Assessment of Heart Function. In all, 12 SD rats received baseline echocardiography before any experimental procedures. Echocardiography was recorded under controlled anesthesia using a Toshiba Aplio XG Echocardiography with PLT-1202S linear array transducer S10-MHz phased-array transducer. M-mode tracing and 2-dimensional (2D) echocardiography images were recorded from the parasternal long- and short-axis views. Short axis view was at the papillary muscles level. Left ventricular end-systolic and end-diastolic dimensions, as well as systolic and diastolic wall thickness, were measured from the M-mode tracings by using the leading-edge convention of the American Society of Echocardiography. For each M-mode measurement, at least three consecutive cardiac cycles were sampled. All rats in both groups received echocardiography measurements on day 2, 7 and 14 post ligation.

[4] = tested on: human aorta endothelial cells (HAEC); test: capillary-like tube formation of human aorta endothelial cells on fibrin matrix; settings: for Approx. No. of Tubes: HAEC on fibrin matrix, Ctrl 9; for Approx. No. of Tubes / capillary-like networks compared to vehicle-treated cells: 22 hours; for capillary-like networks compared to vehicle-treated cells: HAEC
Description: Cells were incubated at 37° C. and equilibrated in 95% air-5% CO2. Fibrin matrices were prepared by polymerization of fibrinogen solution (5 mg fibrinogen/ml serum-free medium) using low concentrations of α-thrombin (2.5 U/ml). After polymerization, gels were soaked in culture medium containing 10% FBS for 2 h at 37° C. to inactivate the thrombin. HAEC were seeded on the surface of the three-dimensional matrix in 96-well plates in Ham's F-12 medium and cultured for 22 hours with different concentrations of angioenhancin compounds of formula I and formula II in a growth medium. Non-treated control was added with equivalent amount of growth medium. Images were captured and the angiogenic properties were determined by calculating the total number of tubes formed.

[5] = tested on: ischemic zone of myocardium; test: subclinical chronic coronary heart disease (cCHD) rat model (partial LAD ligation), neovascularization in ischemic zone; format: in vivo, Sprague-Dawley (SD) rats; settings: for vascular density in treated ischemic hearts versus vehicle-treated hearts (FIG. 4): 2 weeks post ligation; for chronic ischemic heart histology, 2 weeks post LAD partial ligation (FIG. 4): compared with vehicle-treated hearts (C1)
Description: as §1
Measurement of neovascularization in the ischemic zone. Left ventricles from the rats sacrificed on day 14 post-ligation were removed and sliced from apex to base in 3 transverse slices. The slices were fixed in formalin and embedded in paraffin. Vascular density was determined on the histology section samples by counting the number of vessels within the ischemic zone using a light microscope under a high power field (HPF) (40×). Eight random and non-overlapping HPFs within the ischemic field were used for counting all the vessels in each section. The number of vessels in each HPF was averaged and expressed as the number of vessels per HPF. Vascular counts were performed by two investigators in a blind fashion.
The capillary density in the ischemic zone of the angioenhancin treated myocardium was on average 12 capillaries (12±3.8) filled with blood cells per HPF, calculated from 8 randomly selected view fields on each of the 3 slides from 6 angioenhancin treated hearts on day 14.

[6] = tested on: infarcted hearts; test: myocardial infarction rat model (permanent LAD ligation), neovascularization in infarct zone; format: in vivo, Sprague-Dawley rats; settings: vehicle-treated: mainly fibrosis
Description: Myocardial infarction (MI) animal model was induced in male Sprague-Dawley rats (300-350 g) by permanent ligation of the left anterior descending (LAD) coronary artery. The experimental rats were anesthetized with intraperitoneal pentobarbital (50 mg/kg), intubated, and mechanically ventilated with room air. The angioenhancin compound of formula I or formula II (2 mg/kg), dissolved in water (0.5 ml), was orally administrated to MI rats (n=6) for one day post ligation, daily for two weeks with equivalent amount of water to the vehicle-treated rats (n=6). For sham-operated rats (n=5), thoracotomy was performed without ligation. Animals were sacrificed after final echocardiography measurements.
Evaluation of neovascularization in infarcted hearts. Echocardiography was recorded on day 7 and 14 post operations. The hearts of the sacrificed rats were removed and washed with PBS. For histological studies, the left ventricles of the experimental rats were removed and cut from apex-to-base in 3 transverse slices and embedded in paraffin. To quantify the density of capillaries in infarct zones, the vessels were counted and averaged in 6 randomly selected high power view fields (HPF, 40×) on each section. Blinded capillary counts were performed on 6 hearts per group by two investigators. The results were expressed as mean±SD capillaries per HPF.

| Compound | differentiation of HUVEC (cell phenotype, FIG. 2) ([1]; 20 μg/ml) | differentiation of HUVEC (cell phenotype, FIG. 2) ([1]; 40 μg/ml) | differentiation of HUVEC, dose dependence [1] | expressions of angiogenesis-associated genes (VEGF, VEGFR, EGF and FGF), RT-PCR [2] | left ventricle ejection fraction (LVEF) [3] | left ventricle fraction shortening (LVFS) [3] | Approx. No. of Tubes ([4]; 5 μg/ml) | growth of capillary-like tube structures versus non-treated control (FIG. 3) ([4]; 5 μg/ml, HAEC passage 7, 22 hours) | Approx. No. of Tubes ([4]; 10 μg/ml) | Approx. No. of Tubes ([4]; 20 μg/ml) | capillary-like networks compared to vehicle-treated cells [4] | vascular density in treated ischemic hearts versus vehicle-treated hearts (FIG. 4) [5] | chronic ischemic heart histology, 2 weeks post LAD partial ligation (FIG. 4) [5] | infarcted region histology, 2 weeks post LAD ligation (FIG. 4) [6] | differentiation of HUVEC (cell phenotype, FIG. 2) ([1]; 10 μg/ml) | growth of capillary-like tubes versus non-treated control (FIG. 3) ([4]; HAEC passage 7, 22 hours, concentration not given) |
| --- | --- | --- | --- | --- | --- | --- | --- | --- | --- | --- | --- | --- | --- | --- | --- | --- |
| pedunculagin [Formula I] | enhanced differentiation showing thin and elongated cells | thin and elongated phenotype forming tube-like structures | enhanced differentiation of HUVEC in a dose dependent manner | up-regulated | progressively restored | progressively restored | ~45 | enhanced growth of capillary-like tube structures much more than that in non-treated control | ~57 | ~68 | formed more capillary-like networks | higher | more blood vessels | Many newly formed collateral vessels filled with red blood cells were found | – | – |
| O=C(OC1OC2COC(=O)c3cc(O)c(O)c(O)c3-c3c(cc(O)c(O)c3O)C(=O)OC2C2OC(=O)c3cc(O)c(O)c(O)c3-c3c(cc(O)c(O)c3O)C(=O)OC12)c1cc(O)c(O)c(O)c1 (centres unmarked) [Formula II, Potentillin] | thin and elongated phenotype with the typical characteristic of differentiation of vessel endothelial cells | thin, elongated and circled phenotype forming tube-like structures | enhanced differentiation of HUVEC in a dose dependent manner | up-regulated | progressively restored | progressively restored | ~67 | – | ~46 | ~45 | formed more capillary-like networks | higher | more blood vessels | many newly formed vessels filled with red blood cells observed | refractive and elongated cells | enhanced growth of capillary-like tubes more than that in non-treated control, but less than that in angioenhancin-I treated |
